Experimental findings from ChEMBL document CHEMBL1147380, “Studies on the acetogenins of Formosan annonaceous plants. II. Cytotoxic acetogenins from Annona reticulata” (1993) are described below.

Holding throughout (format): functional
Assay [1] has as its system HT-29. In words: Cytotoxicity against human HT-29 cells. To be noted: for EC50: Homo sapiens, HT-29, read-out: ED50 (the source's name).
Assay [2] has as its system KB. In words: Cytotoxicity against human KB cells. Particulars: for EC50: Homo sapiens, KB, read-out: ED50 (the source's name).
The subject of assay [3] is A549. In words: Cytotoxicity against human A549 cells. Particulars: for EC50: Homo sapiens, A549, read-out: ED50 (the source's name).
The subject of assay [4] is P388. In words: Cytotoxicity against mouse P388 cells. Particulars: for EC50: Mus musculus, P388, read-out: ED50 (the source's name).
Assay [5] relates to MCF7. In words: Cytotoxicity against human MCF7 cells. To be noted: for EC50: Homo sapiens, MCF7, read-out: ED50 (the source's name).

≈ marks a conversion by molar mass, not a printed value.

For the molecule `CCCCCCCCCCCC[C@H](O)[C@@H]1CC[C@@H]([C@@H](O)CCCCCC(=O)CCCCC(O)CC2=CC(C)OC2=O)O1` (some centres not stated), the EC50 stood at 1.32 µg/mL (≈ 2.22 µM) in assay [1], 4.66 µg/mL (≈ 7.83 µM) in assay [2], 0.01 µg/mL (≈ 0.0168 µM) in assay [3] and 0.2 µg/mL (≈ 0.336 µM) in assay [4].
For `CCCCCCCCCC[C@@H](O)[C@@H]1CC[C@@H]([C@@H]2CC[C@@H]([C@H](O)CCCCCCCCCC(O)CC3=CC(C)OC3=O)O2)O1` (stereo in doubt; 7) [BULLATACIN], the results for the EC50 in assay [2] and in assay [3] were 10 µg/mL (≈ 16.4 µM) and 0.001 µg/mL (≈ 0.00164 µM), respectively.
Take `CCCCCCCCCC[C@@H](O)[C@@H]1CC[C@@H]([C@@H]2CC[C@@H]([C@H](O)CCCCCCCCCC(O)CC3=CC(C)OC3=O)O2)O1` (stereo in doubt; 13) [BULLATACIN]: the ED50 in assay [1] was under 1 ×10⁻³ ug/ml; in assay [3] it was under 1 ×10⁻⁵ ug/ml; in assay [5] it was under 1 ×10⁻⁵ ug/ml.
Consider `CCCCCCCCCCCC[C@H](O)[C@@H]1CC[C@@H]([C@@H](O)CC(O)CCCCC(O)CCCC(O)CC2=CC(C)OC2=O)O1` (some centres not stated) [ANNOMONICIN], for which the EC50 was 2.29 µg/mL (≈ 3.74 µM) in assay [2] and 0.24 µg/mL (≈ 0.392 µM) in assay [4].
As for `CCCCCCCCCCCC[C@@H](O)[C@H]1CC[C@H]([C@H](O)CCCCC(=O)CCCCC[C@@H](O)CC2=C[C@H](C)OC2=O)O1` [ANNONACINONE], the EC50 in assay [1] is 1 µg/mL (≈ 1.68 µM); in assay [2], 0.01 µg/mL (≈ 0.0168 µM); in assay [3], 0.1 µg/mL (≈ 0.168 µM). Besides, the ED50 in assay [4] is reported as 1 ×10⁻⁶ ug/ml.
As to `CCCCCCCCCCCC[C@@H](O)[C@H]1CC[C@H]([C@H](O)CCCC[C@H](O)CCCCC[C@@H](O)CC2=CC(C)OC2=O)O1` (some centres not stated) [ANNONACIN], the EC50 in assay [1] was determined as 3 µg/mL (≈ 5.03 µM); in assay [3], 0.001 µg/mL (≈ 0.00168 µM). For the same molecule, the ED50 stood at 1 ×10⁻⁴ ug/ml in assay [2] and 1 ×10⁻⁵ ug/ml in assay [4].
Turning to `CCCCCCCCCCCC[C@H](O)[C@@H]1CC[C@@H]([C@@H](O)CCCCCC(O)CCCCC(O)CC2=CC(C)OC2=O)O1` (some centres not stated) [ANNORETICUIN], the EC50 in assay [1] stood at 2.28 µg/mL (≈ 3.82 µM); in assay [2] it was 3.37 µg/mL (≈ 5.65 µM); in assay [3] it was 0.4 µg/mL (≈ 0.67 µM); in assay [4] it was 1 µg/mL (≈ 1.68 µM).
Regarding `CCCCCCCCCCCC[C@H](O)[C@@H]1CC[C@@H]([C@@H](O)CCCCC(=O)CCCCCC2CC(CC(C)=O)C(=O)O2)O1` (some centres not stated) [ISOANNONACINONE], the EC50 in assay [1] came out at 0.009 µg/mL (≈ 0.0151 µM); in assay [3] it was 0.07 µg/mL (≈ 0.118 µM); in assay [4], 0.5 µg/mL (≈ 0.841 µM).
The matching figures for `CCCCCCCCCCCC[C@H](O)[C@@H]1CC[C@@H]([C@@H](O)CCCCC(O)CCCCCC2CC(CC(C)=O)C(=O)O2)O1` (some centres not stated) [ISOANNONACIN]: 0.002 µg/mL (≈ 0.00335 µM), 0.02 µg/mL (≈ 0.0335 µM) and 3 µg/mL (≈ 5.03 µM).
Regarding `CCCCCCCCCCCC[C@H](O)[C@@H]1CC[C@@H]([C@@H](O)CCCCCC(O)CCCCC2CC(CC(C)=O)C(=O)O2)O1` (some centres not stated) [ISOANNORETICUIN], the EC50 in assay [1] came out at 3.06 µg/mL (≈ 5.13 µM); in assay [2], 6.96 µg/mL (≈ 11.7 µM); in assay [3], 0.4 µg/mL (≈ 0.67 µM); in assay [4], 3.6 µg/mL (≈ 6.03 µM).
Take `CCCCCCCCCCCC[C@@H](O)[C@H]1CC[C@H]([C@H](O)CCCCCCCCCCCCC2=C[C@H](C)OC2=O)O1` [REL-SOLAMIN]: the EC50 in assay [2] was determined as 0.3 µg/mL (≈ 0.531 µM); in assay [4], 0.04 µg/mL (≈ 0.0708 µM).
As to `CCCCCCCCCCCC[C@H](O)[C@@H]1CC[C@@H]([C@@H](O)CCCCCCCCCCCCCCC2=CC(C)OC2=O)O1` (some centres not stated) [RETICULATACIN], the EC50 in assay [1] is 4.66 µg/mL (≈ 7.86 µM); in assay [3], 3.49 µg/mL (≈ 5.89 µM); in assay [5] it was 2.91 µg/mL (≈ 4.91 µM).
On to `CCCCCCCCCCCC[C@H](O)[C@@H]1CC[C@@H]([C@@H](O)CCCCCC(=O)CCCCC2CC(CC(C)=O)C(=O)O2)O1` (some centres not stated) [SQUAMONE], for which the EC50 in assay [2] was determined as 1.5 µg/mL (≈ 2.52 µM); in assay [3], 1.34 µg/mL (≈ 2.25 µM); in assay [5] it was 2.14 µg/mL (≈ 3.6 µM); in assay [4], 5.6 µg/mL (≈ 9.41 µM).
